pIC50: −log10 of the molar value.
Tests used:
phosphorylated nucleolin = experiment: anti-phosphonucleolin (TG-3) cytoblot screen; assay type: cell-based, human
Experimental: A detection assay providing an indirect measure of the mitotic index of a population of cells was used to identify compounds that act as cell cycle inhibitors. By measuring the level of phosphorylation of a chromatin-associated protein using the anti-phosphonucleolin (TG-3) cytoblot (Stockwell et al. 1999), nucleolin the mitotic index (i.e., the number of cell in mitosis) was assessed. In brief, the library compounds were dissolved in DMSO (5 mg/ml) and pin-transferred from 384-well plates (Library plates #1-51) for a final concentration 5-10 ug/ml using a 384-polypropylene pin array (Genetix) into 384-well screening plates (Nunc) seeded with 4,000 A549 human lung carcinoma cells (ATCC) in DMEM+ and incubated for 22 hours at 37° C. with 5% CO2. Compounds from library plates #1-24 were pooled at two compounds per well, while compounds from library plates #25-51 were tested singly. […] The reactivity of the anti-phosphonucleolin antibody was measured using enhanced chemiluminescent detection (Amersham) after incubation of each well with a horseradish peroxidase-coupled anti-mouse IgM secondary antibody (Sigma) and addition of luminol. The relative luminescence produced from each well was measured on an automatic plate reader (LJL Analyst). […]

BS-C-1 cells = experiment: fluorescence microscopy and live imaging of BS-C-1 cells; assay type: cell-based, monkey
recombinant Eg5 = biological target: T1, recombinant Eg5 (Xenopus laevis, UniProt P28025); experiment: Eg5 driven microtubule gliding in vitro; assay type: biochemical; conditions: for reversibility of inhibition (washout): monastrol 200 μM, then washout
T1 sequence (P28025 1-1067): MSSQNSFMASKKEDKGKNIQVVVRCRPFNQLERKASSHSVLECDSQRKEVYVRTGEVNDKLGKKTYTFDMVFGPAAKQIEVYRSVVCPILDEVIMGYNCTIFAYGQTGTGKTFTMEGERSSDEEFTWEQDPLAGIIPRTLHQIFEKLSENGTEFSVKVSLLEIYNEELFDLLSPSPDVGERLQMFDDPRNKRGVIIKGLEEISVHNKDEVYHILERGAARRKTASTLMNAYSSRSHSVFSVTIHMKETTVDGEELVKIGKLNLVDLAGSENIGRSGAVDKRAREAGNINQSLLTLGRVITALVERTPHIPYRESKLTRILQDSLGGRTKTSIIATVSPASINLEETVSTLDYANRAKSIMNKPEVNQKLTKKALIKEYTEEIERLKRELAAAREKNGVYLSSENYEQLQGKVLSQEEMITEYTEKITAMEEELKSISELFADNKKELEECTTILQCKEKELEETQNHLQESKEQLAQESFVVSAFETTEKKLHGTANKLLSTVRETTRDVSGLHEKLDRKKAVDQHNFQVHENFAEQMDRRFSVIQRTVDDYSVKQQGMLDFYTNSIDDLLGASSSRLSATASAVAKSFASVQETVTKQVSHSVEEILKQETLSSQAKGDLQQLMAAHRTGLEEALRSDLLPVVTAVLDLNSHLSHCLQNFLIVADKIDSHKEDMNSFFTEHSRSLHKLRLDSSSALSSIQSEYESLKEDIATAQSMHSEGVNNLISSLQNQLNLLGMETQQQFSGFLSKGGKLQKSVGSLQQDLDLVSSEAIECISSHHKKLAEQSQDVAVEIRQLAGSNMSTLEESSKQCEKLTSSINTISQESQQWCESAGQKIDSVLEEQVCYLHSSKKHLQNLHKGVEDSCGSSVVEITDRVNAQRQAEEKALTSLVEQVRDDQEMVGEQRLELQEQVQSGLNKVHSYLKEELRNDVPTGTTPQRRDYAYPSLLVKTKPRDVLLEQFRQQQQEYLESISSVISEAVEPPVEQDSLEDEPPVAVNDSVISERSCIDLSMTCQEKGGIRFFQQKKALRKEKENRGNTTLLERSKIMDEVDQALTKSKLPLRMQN
Experimental: FIG. 26. […] Conventional kinesin motility was not inhibited in the same assay. A. Model for spindle bipolarity. Plus-end directed motors, such as Eg5 are thought to be involved in the separation of the centrosomes and the establishment of a symmetric spindle axis. B. Inhibition of the kinesin Eg5 results in monastrol spindles. Microtubules, green; chromosomes, blue. Eg5 is depicted as homotetramer (9). C. […] After imaging Eg5 driven microtubule gliding in the presence of monastrol (200 μM), the same assay chamber was depleted of compound and the microtubule gliding recorded (Washout). […] D. Chemical structures of monastrol and DHP2.
Mitotic kinesins have been implicated in anti-parallel overlap interactions (Walczak et al., Curr. Biol. 8:903, 1998). Inhibition of the tetrameric mitotic kinesin Eg5 with antibodies induced monoasters (Sawin et al., Nature 359:540, 1992; Blangy et al., Cell 83:125, 1995; Sharp et al., J. Cell Biol. 144:125, 1999). We therefore hypothesized that Eg5 might be a target of monastrol. Like other motile kinesins, Eg5 can drive in vitro microtubule gliding (Sawin et al., Nature 359:540, 1992; Kapoor et al., Proc. Natl. Acad. Sci. USA, 1999). We tested whether monastrol inhibits Eg5 motility in vitro. […] Microtubule attachment to the Eg5 coated coverslip was maintained in the presence of monastrol (FIG. 26C). […] To test whether inhibition of the Eg5 driven microtubule gliding is specific to monastrol, we tested the closely related compound DHP2 (FIG. 26D).

- EC50 (effective concentration) in the cytoblot assay (phosphorylated nucleolin): 22 µM
- pIC50 (recombinant Eg5): 4.85
- IC50 (inhibitory concentration), Eg5 driven microtubule motility (recombinant Eg5): 14 µM
- reversibility of inhibition (washout) (recombinant Eg5): reversible in vitro and in vivo
- reversibility of inhibition (washout) (recombinant Eg5; listed as Monastrol): reversible in vitro
Substance: monastrol
- mitotic cells displaying the monoastral phenotype (BS-C-1 cells): Over 90%
- microtubule, spindle and chromosome phenotype (BS-C-1 cells; BS-C-1 cells, 1A at 40 μM for 4 hours): the bipolar spindle was replaced with a monoastral microtubule array surrounded by a ring of chromosomes
- chromosome attachment to microtubules (BS-C-1 cells; live images of BS-C-1 cells): does not inhibit chromosome attachment to microtubules

From patent US20080311589A1, “METHOD OF HIGH-THROUGHPUT SCREENING OF MOLECULES AND COMPOUNDS FOR THEIR EFFECTS ON BIOLOGICAL AND CHEMICAL PROCESSES” (priority 1999, published 2008)
